Where two headings read alike, the source gives them in different places.

Broadly, the AUC is concentration integrated over time. The Cmax is the peak of the concentration-time curve. What is called Tmax is the time at which the peak concentration occurs. As usually defined, the half-life is the time needed for the level to fall by half in the phase considered.

The data set can be described thus: Pharmacokinetic parameters of oral tacrolimus in the presence of Q-Captisol in healthy human volunteers. It is filed as in vivo. The method, then:
Tacrolimus-quercetin pharmacokinetic interactions are evaluated in N=15 healthy male subjects in an open-label, three-way crossover study of i.v. or oral quercetin-sulfobutylether-7-β-cyclodextrin (Q-Captisol) administered in combination with oral tacrolimus. Q-Captisol stock dosing solutions are prepared in aqueous Captisol (CyDex Inc.) using sodium hydroxide to facilitate dissolution. The final solution is adjusted to a final pH=7.5 to 8.0 using dilute sodium hydroxide or HCl. Stock solutions are aseptically filtered into a sterile IV bag and diluted to final volume with sterile saline. Q-Captisol oral dosing solutions are prepared by transferring the stock solution to a dosing cup and diluting to the final volume with deionized water. Oral tacrolimus is administered using commercially-available Prograf® capsules, with each capsule containing 1 mg tacrolimus and the excipient lactose.
In Period 1, all subjects received only a single dose of oral tacrolimus (1 mg).
In Period 2, all subjects received 3× daily oral doses of Q-Captisol on Days 12, 13, and 14. On Day 14, subjects received a single dose of oral tacrolimus (1 mg)
In Period 3, i.v. infusions of Q-Captisol are administered over 20 min via an indwelling cannula. Tacrolimus (1 mg) is administered orally 60 min after the start of the administration of the i.v. Q-Captisol dose.
The dosing regimen is as follows:
Period 1: Day 1: single oral dose of 1 mg tacrolimus
Period 2: Day 12: three times per day (Q 8 hrs) single oral dose of 100 mg Q-Captisol
Day 13: three times per day (Q 8 hrs) single oral dose of 100 mg Q-Captisol
Day 14: three times per day (Q 8 hrs) single oral dose of 100 mg Q-Captisol, with a single oral dose of 1 mg tacrolimus following the first dose of Q-Captisol.
Period 3: Day 25: single IV infusion of 100 mg Q-Captisol followed by a single oral dose of 1 mg tacrolimus.
In Period 1, blood samples for determination of tacrolimus pharmacokinetics are obtained at 0 min (pre-dose), then at 0.25, 0.5, 1, 2, 4, 8, 12, 24, 48, and 72 hr. Similar time periods are used to obtain tacrolimus blood sampled in Periods 2 and 3. Blood samples (0.4 ml) are withdrawn into K2-EDTA tubes from either an indwelling cannula or via venipuncture, then processed to yield plasma. Plasma samples are transferred to fresh tubes and frozen prior to shipment to the analytical laboratory.
The tacrolimus concentrations in plasma are determined using validated assay methods via an LC/MS/MS analytical technique. Major pharmacokinetic parameters, including area under the concentration versus time curve from time zero to the time of last measurable concentration (AUCt), area under the concentration versus time curve from time zero to infinite time (AUCinf), maximum observed concentration (Cmax), time to reach maximum observed blood or plasma concentration (Tmax), apparent terminal elimination rate constant (Kcl), clearance (CL), and half-life (T1/2), are determined from the plasma concentration data. Samples are analysed from all 15 subjects; one subject is a clear outlier and is excluded from the final analysis (N=14 subjects per dose regimen).

[1] abbreviates: Period 1: single oral dose 1 mg tacrolimus alone.
[2] abbreviates: Period 2: 1 mg oral tacrolimus + Q-Captisol po 100 mg three times per day Days 12-14.
Where [3] appears, read: male, plasma, Period 1: single oral dose 1 mg tacrolimus alone.
Setting [4] is: male, plasma, Period 2: 1 mg oral tacrolimus + Q-Captisol po 100 mg three times per day Days 12-14.
[5] abbreviates: male, plasma, Period 3: 1 mg oral tacrolimus after single IV infusion of 100 mg Q-Captisol.

As to `C=CC[C@@H]1/C=C(\C)C[C@H](C)C[C@H](OC)[C@H]2O[C@@](O)(C(=O)C(=O)N3CCCC[C@H]3C(=O)O[C@H](/C(C)=C/[C@@H]3CC[C@@H](O)[C@H](OC)C3)[C@H](C)[C@@H](O)CC1=O)[C@H](C)C[C@@H]2OC` [tacrolimus], under setting [1], the CL stood at 4.75 mL/min/kg and the Vd worked out at 8.5 L/kg. Besides, under setting [2], the CL stood at 3.53 mL/min/kg and the Vd worked out at 8.4 L/kg. Further, under setting [3], the area under the curve (AUC) came out at 48.8 ng·h/mL, the Cmax stood at 5.8 ng/mL, the time of peak concentration (Tmax) was found to be 1.56 h and the half-life is 20.8 h. Further, under setting [4], the AUC came out at 65.7 ng·h/mL, the Cmax came out at 6.5 ng/mL, the Tmax worked out at 1.28 h and the half-life was 27.7 h. For the same molecule, under setting [5], the AUC turned out to be 56.3 ng·h/mL, the Cmax came out at 6.4 ng/mL, the Tmax stood at 1.55 h and the clearance was 4.08 mL/min/kg. In addition, under setting [5], the half-life is 19.9 h. The Vd (male, plasma, Period 3: 1 mg oral tacrolimus after single IV infusion of 100 mg Q-Captisol, read-out: Vd) was determined as 7.1 L/kg.

These data come from patent US20090082400A1, “SOLUBLE PYRONE ANALOGS METHODS AND COMPOSITIONS” (priority 2007, published 2009).
